Test results: US20250177392A1, “BROAD SPECTRUM INHIBITORS OF CYTOMEGALOVIRUS” (MICROBIOTIX, INC., priority 2022, published 2025)

Legend:
Format in all cases: cell-based, Human cytomegalovirus
AD169^R CMV virus [1] = experiment: Plaque reduction (dissemination) assay, prophylactic treatment
Protocol: (§1) FIG. 8A-H are fluorescence images (A & B) and graphs showing that NAPA compounds MBX-4992 and MBXC-4336 work in both prophylactic and therapeutic settings to inhibit HCMV infection. ARPE-19 cells (A to D) and NHDF cells (E and F) treated with increasing concentrations (0, 1, 5, 20, and 50 μM) of MBX-4992, MBXC-4336, or ganciclovir (2.5 μM) were infected with AD169^R (MOI 0.025) and analyzed for viral plaques of >5,000 μm^2 (C and E) and >10,000 μm^2 (D and F) based on GFP fluorescence. The representative images of plaques from AD169^R-infected ARPE-19 cells treated MBX-4992, MBXC-4336, ganciclovir are shown (A and B). MBX-4992, MBXC-4336 (G and H), and ganciclovir treatment at 48 hpi of AD169^R-infected ARPE-19 cells (MOI 0.025) were analyzed for virus plaques >5,000 μm^2 and >10,000 μm^2 at 10 dpi. The normalized plaque number was designated to be 100 based on plaques from DMSO treated cells. Statistical tests were performed using ordinary one-way ANOVA with multiple comparisons to DMSO treated cells as a control and a Dunnett's post-test; *, p<0.05; **, p<0.01; ***, p<0.001; ****, p<0.0001.
For the prophylactic treatment analysis, the plaque assay was performed on ARPE-19 and NHDF cells (4×10^4) in a 24-well plate. The cells were pretreated for 1 hour with either MBX-4992 or MBXC-4336 (1-50 μM), DMSO, or ganciclovir (2.5 μM) and followed by virus infection with AD169^R. Following a 2-hour incubation at 37° C., the inoculum was removed and cells were overlaid with 1% low melt sea agarose. Upon solidification of the agarose, MBX-4992, MBXC-4336, DMSO, or ganciclovir in media was added at the indicated concentration. The drugs were replaced every 3 days. The cells were examined using Brightfield and GFP fluorescence to quantify the number and size of virus plaques using a Celigo Cytometer at 10 dpi.
To address whether NAPA compounds can limit virus dissemination in epithelial cells, we analyzed the inhibitory properties of MBX-4992 and MBXC-4336 using a plaque reduction assay by designating a cluster of virus infected cells as a virus plaque (Parsons et al., Antivir. Res., 193:105124 (2021)) The results are shown in FIG. 8A-H.
To evaluate the prophylactic function of the NAPA compounds, ARPE-19 cells and NHDF cells treated with DMSO, MBX-4992, MBXC-4336 (0-50 μM), or ganciclovir (2.5 μM) were infected with AD169^R CMV virus and analyzed for virus plaques at 10 dpi based on GFP fluorescence (FIG. 8A-F). A cluster of virus infected cells was designated a viral plaque based on an average cluster area of 5,000 μm^2 or 10,000 μm^2 (FIG. 8A-B) using a Celigo cytometer.

AD169^R CMV virus [2] = experiment: Plaque reduction assay, therapeutic treatment at 48 hpi; conditions: Human betaherpesvirus 5, AD169, ARPE-19, read-out: IC50 of plaque reduction (>5,000 μm^2 and >10,000 μm^2)
Protocol: as §1
For therapeutic treatment, ARPE-19 cells (4×10^4) were plated in a 24-well plate. […] The cells were examined using brightfield and YFP fluorescence to quantify the number and plaques using the Celigo Cytometer at 14. […]

AD169^R (IE1 expression) = experiment: Western blot (immunoblot) of IE1 expression in AD169^R-infected cells
Protocol: The molecular weight markers and respective proteins are indicated.
FIGS. 12A and B are Western Blot assays showing that MBXC-4336 limits expression of IE1 in fibroblasts and epithelial cells. Total cell lysates from AD169^R-infected (MOI 0.2) NHDF (A) and ARPE-19 (B) cells pre-treated with DMSO, MBX-4336 (0, 1, 5, 10, or 20 μM), or heparin (50 μg/mL) collected at 48 hpi were subjected to Western blot analysis using a rabbit anti-IE-1 antibody (lanes 1-7) and an anti-GAPDH antibody (lanes 8-14) as a loading control. The molecular weight markers and respective proteins are indicated.
Total cell lysates from virus infected NHDF cells treated with compounds were created through SDS-lysis (10^4/100 uL of 1% SDS) of at least three rounds of heating at 95° C. for 3 min and vigorous agitation. The total cell lysates were resolved using an SDS-polyacrylamide gel (12.5%), transferred to a PVDF membrane using a semi-dry apparatus. The membrane was then incubated with 1% BSA/PBS for 1 hr at room temperature followed by incubation with anti-IE1 and anti-GAPDH. Finally, the respective secondary antibody conjugated with HRP was incubated with membrane followed by detection using ECL reagents (Millipore).
Next, inhibition of the expression of IE1 in AD169^R-infected cells treated with MBX-4992 was examined by immunoblot analysis (FIG. 4E). […] Collectively, these findings further indicate that MBX-4992 effectively prevents the expression of the immediate-early genes during a CMV infection.

[3] = Human betaherpesvirus 5, AD169, ARPE-19, read-out: IC50 of virus plaque reduction
[4] = Human betaherpesvirus 5, AD169, Fibroblast, read-out: IC50 of virus plaque reduction

Structure (SMILES)	IC50 (AD169^R CMV virus [1]; [3])	IC50 (AD169^R CMV virus [1]; [4])	IC50 (AD169^R CMV virus [2])	IE1 expression by immunoblot (AD169^R (IE1 expression); NHDF cells, 24 hpi, MBX-4992 1-10 μM, ganciclovir 5 μM, convallotoxin 0.01 μM)	IE1 expression by immunoblot (AD169^R (IE1 expression); NHDF and ARPE-19 cells, 48 hpi (FIG. 12))
Cc1nc(Nc2ccc(NC(=O)c3ccco3)cc2)cc(N2CCCC2)n1 [MBX-4992]	6.5 µM	12 µM	~9 µM	concentration dependent decrease in IE1 expression	
Cc1nc(Nc2cccc(NC(=O)c3ccco3)c2)cc(N2CCCCC2)n1 [MBXC-4336]	1.7 µM	4 µM	~9 µM		effectiveness of MBXC-4336 was validated
